Experimental data: US8492371B2, “Compounds as cannabinoid receptor ligands” (priority 2009, dated 2013)
Where two headings read alike, the source gives them in different places.

What was measured:
[1] = acute thermal, persistent, inflammatory and neuropathic pain models; cited from earlier work
human CB2 receptors = biological target: T1, human CB2 receptors (Homo sapiens, UniProt P34972); assay: Human CB2 radioligand binding assay ([3H]CP-55,940 competition)
T1 construct: expressed in transfected cells; host or cells: HEK293
T1 sequence (P34972 whole entry): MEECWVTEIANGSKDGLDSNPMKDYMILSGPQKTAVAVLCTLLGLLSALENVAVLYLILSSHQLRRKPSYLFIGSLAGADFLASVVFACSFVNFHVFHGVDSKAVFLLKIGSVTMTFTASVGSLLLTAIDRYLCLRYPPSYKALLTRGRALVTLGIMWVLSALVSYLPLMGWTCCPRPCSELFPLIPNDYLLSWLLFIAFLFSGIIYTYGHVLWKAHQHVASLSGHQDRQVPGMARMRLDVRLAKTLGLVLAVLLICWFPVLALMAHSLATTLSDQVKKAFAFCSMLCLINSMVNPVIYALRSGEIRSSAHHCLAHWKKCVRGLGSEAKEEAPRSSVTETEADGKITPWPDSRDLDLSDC
Procedure, shortened: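 Membranes from HEK293 cells stably expressing human CB2 (5 μg/well) incubated 90 min at 30 °C with 0.5 nM [3H]CP-55,940 and five concentrations of displacer (0.01 nM–10 μM) in pH 7.4 Tris/EDTA/MgCl2 buffer with fatty acid free BSA. Bound radioactivity counted after filtration; nonspecific binding defined with 10 μM unlabeled CP-55,940.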

rat CB2 receptors = biological target: T2, rat CB2 receptors (Rattus norvegicus, UniProt Q9QZN9); assay: Rat CB2 radioligand binding assay ([3H]CP-55,940 competition)
T2 construct: expressed in transfected cells; host or cells: HEK293
T2 sequence (Q9QZN9 1-360): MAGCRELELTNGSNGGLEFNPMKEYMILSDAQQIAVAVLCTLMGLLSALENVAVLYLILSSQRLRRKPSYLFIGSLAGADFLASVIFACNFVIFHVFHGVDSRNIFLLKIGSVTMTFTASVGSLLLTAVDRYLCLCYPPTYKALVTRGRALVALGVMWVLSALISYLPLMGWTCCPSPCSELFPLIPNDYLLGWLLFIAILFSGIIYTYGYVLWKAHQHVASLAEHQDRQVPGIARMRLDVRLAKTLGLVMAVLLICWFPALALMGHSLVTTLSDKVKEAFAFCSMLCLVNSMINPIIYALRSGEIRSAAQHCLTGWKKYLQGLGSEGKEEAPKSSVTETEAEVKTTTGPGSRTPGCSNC
Procedure, shortened: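 Membranes from HEK293 cells stably expressing rat CB2 (20 μg/well) incubated 45 min at 30 °C with 0.5 nM [3H]CP-55,940 and five competitor concentrations in Tris/EDTA/MgCl2 buffer with 0.5 mg/mL BSA, pH 7.4. Filtration and scintillation counting; nonspecific binding with 10 μM unlabeled CP-55,940.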

[2] = neuropathic, incisional, chronic and acute inflammatory pain; cited from earlier work
[3] = rat formalin model of persistent pain; cited from earlier work
microglial = conditions: in vitro; blocked by SR144528; cited from earlier work
[4] = low doses, apolipoprotein E knockout mice; inhibited by SR144528; cited from earlier work
[5] = cited from earlier work

CN1CCCCC1Cn1cc(C(=O)c2cc([N+](=O)[O-])ccc2I)c2ccccc21 (stereo not drawn) [AM-1241]
analgesic efficacy [1]: exhibits robust analgesic efficacy

CN(C)S(=O)(=O)Nc1ccc(C(F)(F)F)cc1C(=O)/N=c1\cc(C(C)(C)C)n(C)n1C[C@H]1CCCO1 [Example 121, N-{(3E)-5-tert-butyl-1-methyl-2-[(2R)-tetrahydrofuran-2-ylmethyl]-1,2-dihydro-3H-pyrazol-3-ylidene}-2-{[(dimethylamino)sulfonyl]amino}-5-(trifluoromethyl)benzamide]
Ki (human CB2 receptors): 53 nM | Ki (rat CB2 receptors): 15 nM

C=Cc1ccc(C(F)(F)F)cc1C(=O)/N=c1\cc(C(C)(C)C)n(C)n1C[C@H]1CCCO1 [Example 122, N-{(3E)-5-tert-butyl-1-methyl-2-[(2R)-tetrahydrofuran-2-ylmethyl]-1,2-dihydro-3H-pyrazol-3-ylidene}-5-(trifluoromethyl)-2-vinylbenzamide]
Ki (human CB2 receptors): 8.2 nM | Ki (rat CB2 receptors): 1.4 nM

CC(C)CS(=O)(=O)Nc1ccc(C(F)(F)F)cc1C(=O)/N=c1\cc(C(C)(C)C)n(C)n1C[C@H]1CCCO1 [Example 125, N-{(3E)-5-tert-butyl-1-methyl-2-[(2R)-tetrahydrofuran-2-ylmethyl]-1,2-dihydro-3H-pyrazol-3-ylidene}-2-[(isobutylsulfonyl)amino]-5-(trifluoromethyl)benzamide]
Ki (human CB2 receptors): 32 nM | Ki (rat CB2 receptors): 25 nM

COC(=O)Cc1ccc(C(F)(F)F)cc1C(=O)/N=c1\cc(C(C)(C)C)n(C)n1C[C@H]1CCCO1 [Example 128, methyl [2-[({(3E)-5-tert-butyl-1-methyl-2-[(2R)-tetrahydrofuran-2-ylmethyl]-1,2-dihydro-3H-pyrazol-3-ylidene}amino)carbonyl]-4-(trifluoromethyl)phenyl]acetate]
Ki (human CB2 receptors): 243 nM | Ki (rat CB2 receptors): 107 nM

Cn1c(C(C)(C)C)c/c(=N\C(=O)c2cc([N+](=O)[O-])ccc2F)n1C[C@H]1CCCO1 [Example 129, N-{(3E)-5-tert-butyl-1-methyl-2-[(2R)-tetrahydrofuran-2-ylmethyl]-1,2-dihydro-3H-pyrazol-3-ylidene}-2-fluoro-5-nitrobenzamide]
Ki (human CB2 receptors): 8.6 nM | Ki (rat CB2 receptors): 2.3 nM

Cn1c(C(C)(C)C)c/c(=N\C(=O)c2cccc(C#N)c2)n1C[C@H]1CCCO1 [Example 130, N-{(3E)-5-tert-butyl-1-methyl-2-[(2R)-tetrahydrofuran-2-ylmethyl]-1,2-dihydro-3H-pyrazol-3-ylidene}-3-cyanobenzamide]
Ki (human CB2 receptors): 72 nM | Ki (rat CB2 receptors): 17 nM

CCOC(=O)CCc1ccc(C(F)(F)F)cc1C(=O)/N=c1\cc(C(C)(C)C)n(C)n1C[C@H]1CCCO1 [Example 131, ethyl 3-[2-[({(3E)-5-tert-butyl-1-methyl-2-[(2R)-tetrahydrofuran-2-ylmethyl]-1,2-dihydro-3H-pyrazol-3-ylidene}amino)carbonyl]-4-(trifluoromethyl)phenyl]propanoate]
Ki (human CB2 receptors): 23 nM | Ki (rat CB2 receptors): 18 nM

Cn1c(C(C)(C)C)c/c(=N\C(=O)c2cc(Br)ccc2F)n1C[C@H]1CCCO1 [Example 132, 5-bromo-N-{(3E)-5-tert-butyl-1-methyl-2-[(2R)-tetrahydrofuran-2-ylmethyl]-1,2-dihydro-3H-pyrazol-3-ylidene}-2-fluorobenzamide]
Ki (human CB2 receptors): 15 nM | Ki (rat CB2 receptors): 7.1 nM

Cn1c(C(C)(C)C)c/c(=N\C(=O)c2cc(C(F)(F)F)ccc2Oc2ccccc2)n1C[C@H]1CCCO1 [Example 133, N-{(3E)-5-tert-butyl-1-methyl-2-[(2R)-tetrahydrofuran-2-ylmethyl]-1,2-dihydro-3H-pyrazol-3-ylidene}-2-phenoxy-5-(trifluoromethyl)benzamide]
Ki (human CB2 receptors): 107 nM | Ki (rat CB2 receptors): 39 nM

COc1ccc2c(c1)c(CCN1CCOCC1)c(C)n2C(=O)c1cccc(Cl)c1Cl [GW405833]
efficacy in pain models [2]: is efficacious

CCCCCCC(C)(C)c1cc(OC)c([C@@H]2C=C(CO)[C@@H]3C[C@H]2C3(C)C)c(OC)c1 [HU-308]
antinociceptive response [3]: elicits an antinociceptive response

CCCC(C)(C)c1ccc2c(c1)OC(C)(C)[C@@H]1CC=C(C)C[C@@H]21 [JWH-133]
effect on β-amyloid-induced microglial activation and neurotoxicity (microglial): abrogated β-amyloid-induced microglial activation and neurotoxicity

(−)-Δ^9-Tetrahydrocannabinol [THC]
progression of atherosclerotic lesions [4]: slowed the progression of atherosclerotic lesions

N-({[(2Z)-5-tert-butyl-3-[(2R)-tetrahydrofuran-2-ylmethyl]-1,3,4-thiadiazol-2(3 H)-ylidene]amino}carbonyl)-L-phenylalaninamide [Example 80]
Ki (human CB2 receptors; HEK293 membranes, 0.5 nM [3H]CP-55,940, read-out: human CB2 Ki): 28 nM | Ki (rat CB2 receptors; HEK293 membranes, 0.5 nM [3H]CP-55,940, read-out: rat CB2 Ki): 38 nM

SR144528
ovariectomy-induced bone loss ([5]; mice, model for post-menopausal osteoporosis): reverse ovariectomy-induced bone loss | osteoclast activity ([5]; mouse, in vivo): inhibit osteoclast activity
